In series [1] the test system is L1210. Briefly: Antitumor activity against mouse L1210 cells allografted in DBA/2 HaDD mouse assessed as survival at 75 mg/kg, ip bid administered for 2 days (reference value: 8.7 days). Type of series: functional. The conditions noted are these: route intraperitoneal.
For another series, the system named is HeLa. As to the kind of experiment: Cytotoxicity against human HeLa cells assessed as growth inhibition. The class given is functional.
Series [2] can be described thus: Stability of the compound in presence of CR/dCR deaminase. The class given is ADME.
Series [3] concerns L1210. Briefly: Cytotoxicity against mouse L1210 cells assessed as growth inhibition. Type of series: functional.
A further series concerns MOLT-4. As to the kind of experiment: Cytotoxicity against human MOLT4F cells assessed as growth inhibition. Type of series: functional.
For series [4], the system named is L1210. As to the kind of experiment: Antitumor activity against mouse L1210 cells allografted in DBA/2 HaDD mouse assessed as survival at 40 mg/kg, ip bid administered for 2 days (reference value: 8.7 days). Type of series: functional. The conditions noted are these: route intraperitoneal.

`Nc1ccn([C@@H]2O[C@H](CO)[C@@H](O)[C@@H]2N)c(=O)n1`: the Survival in the series on L1210 [1] was over 120 days. Besides, the concentration for 50% growth inhibition (GI50) in the series with HeLa came to 30000 nM; in the series on L1210 [3], 4000 nM. In addition, the Stability result in series [2] was “Stable”.

As for `[N-]=[N+]=N[C@H]1[C@H](O)[C@@H](CO)O[C@H]1n1ccc(N)nc1=O` [CYTARAZID], the GI50 in the series on HeLa stood at 200 nM; in the series on MOLT-4 it was 70 nM; in the series with L1210 [3], 600 nM. The Stability entry in series [2] is “Stable”. For the same compound, the Survival in the series on L1210 [4] is over 120 days.

Source of the values: ChEMBL document CHEMBL3244160, “Novel arabinofuranosyl derivatives of cytosine resistant to enzymatic deamination and possessing potent antitumor activity” (J Med Chem, 1978).
